According to the supplement of paper PMC8149375:

Columns and labels:
Details in all cases: treatment: drug + dasatinib (fixed dose, not stated); 5 days
UO-31 [1] = experiment: AUC of dose-response viability curve, drug + dasatinib, normalised to DMSO (arbitrary (AUC of normalised viability)); higher = less growth inhibition
Method: (§1)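 Primary HTS combination arm: 8 RCC cell lines treated with 8 doses (up to 10 uM) of each library drug plus a fixed dose of dasatinib (dose not stated) for 5 days; viability read by CellTiter-Glo and normalised to DMSO. GI50 was fitted with XLfit, AUC is the area under the dose-response curve, and minimum viability is the lowest fraction of DMSO viability across doses.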

A498 [2] = experiment: as above
Method: as §1

CAKI-1 [3] = experiment: as above
Method: as §1

ACHN [4] = experiment: as above
Method: as §1

SN12C [5] = experiment: as above
Method: as §1

769-P [6] = experiment: as above
Method: as §1

TK-10 [7] = experiment: as above
Method: as §1

786-O [8] = experiment: as above
Method: as §1

UO-31 [9] = experiment: minimum viability across doses, drug + dasatinib, relative to DMSO (fraction); higher = less growth inhibition
Method: as §1

A498 [10] = experiment: as above
Method: as §1

CAKI-1 [11] = experiment: as above
Method: as §1

ACHN [12] = experiment: as above
Method: as §1

SN12C [13] = experiment: as above
Method: as §1

769-P [14] = experiment: as above
Method: as §1

TK-10 [15] = experiment: as above
Method: as §1

786-O [16] = experiment: as above
Method: as §1

UO-31 [17] = experiment: GI50 of drug in presence of dasatinib; higher = less potent
Method: as §1

A498 [18] = experiment: as above
Method: as §1

CAKI-1 [19] = experiment: as above
Method: as §1

ACHN [20] = experiment: as above
Method: as §1

SN12C [21] = experiment: as above
Method: as §1

769-P [22] = experiment: as above
Method: as §1

TK-10 [23] = experiment: as above
Method: as §1

786-O [24] = experiment: as above
Method: as §1

GI50 of drug (ACHN [20]) [nM] | GI50 of drug (786-O [24]) [nM] | Structure (SMILES) | AUC of dose-response viability curve (UO-31 [1]) | AUC of dose-response viability curve (A498 [2]) | AUC of dose-response viability curve (CAKI-1 [3]) | AUC of dose-response viability curve (ACHN [4]) | AUC of dose-response viability curve (SN12C [5]) | AUC of dose-response viability curve (769-P [6]) | AUC of dose-response viability curve (TK-10 [7]) | AUC of dose-response viability curve (786-O [8]) | minimum viability across doses (UO-31 [9]) | minimum viability across doses (A498 [10]) | minimum viability across doses (CAKI-1 [11]) | minimum viability across doses (ACHN [12]) | minimum viability across doses (SN12C [13]) | minimum viability across doses (769-P [14]) | minimum viability across doses (TK-10 [15]) | minimum viability across doses (786-O [16]) | GI50 of drug (UO-31 [17]) [nM] | GI50 of drug (A498 [18]) [nM] | GI50 of drug (CAKI-1 [19]) [nM] | GI50 of drug (SN12C [21]) [nM] | GI50 of drug (769-P [22]) [nM] | GI50 of drug (TK-10 [23]) [nM]
157 | 55.8 | CC(C)(C)c1cnc(CSc2cnc(NC(=O)C3CCNCC3)s2)o1 + Cc1nc(Nc2ncc(C(=O)Nc3c(C)cccc3Cl)s2)cc(N2CCN(CCO)CC2)n1 [dasatinib] | 2.06 | 1.6 | 1.59 | 1.26 | 1.34 | 2.04 | 2.02 | 1.26 | 0.013 | 0.00993 | 0.034 | 0.00387 | 0.0108 | 0.0223 | 0.189 | 0.00565 | 429 | 129 | 131 | 134 | 1190 | 476
9.64 | 10.7 | CNC(=O)Nc1ccc(-c2nc(N3CC4CCC(C3)O4)c3cnn(C4CCC5(CC4)OCCO5)c3n2)cc1 + Cc1nc(Nc2ncc(C(=O)Nc3c(C)cccc3Cl)s2)cc(N2CCN(CCO)CC2)n1 [dasatinib] | 1.2 | 1.64 | 0.907 | 0.872 | 1.24 | 1.16 | 1.19 | 0.872 | 0.00565 | 0.0731 | 0.0306 | 0.0427 | 0.116 | 0.0698 | 0.0572 | 0.00307 | 38.8 | 121 | 16.7 | 32.3 | 36.6 | 32.5
285 | 220 | Nc1nc(N)c2nc(-c3cccc(O)c3)cnc2n1 + Cc1nc(Nc2ncc(C(=O)Nc3c(C)cccc3Cl)s2)cc(N2CCN(CCO)CC2)n1 [dasatinib] | 3.5 | 2.98 | 2.17 | 1.67 | 2.15 | 2.54 | 2.4 | 1.84 | 0.0458 | 0.222 | 0.0946 | 0.16 | 0.183 | 0.647 | 0.269 | 0.0115 | 2960 | 4140 | 1760 | 1410 | > 10000 | 3000
361 | 476 | Nc1ccc(C(=O)Nc2cccc(-c3nc(N4CCOCC4)c4oc5ncccc5c4n3)c2)cn1 + Cc1nc(Nc2ncc(C(=O)Nc3c(C)cccc3Cl)s2)cc(N2CCN(CCO)CC2)n1 [dasatinib] | 3.17 | 3.03 | 1.61 | 1.68 | 2.16 | 1.99 | 2.16 | 1.81 | 0.0122 | 0.283 | 0.0783 | 0.152 | 0.345 | 0.0371 | 0.0664 | 0.00383 | 1510 | 6740 | 256 | 2590 | 850 | 973
